According to ChEMBL document CHEMBL1201862, “PubChem BioAssay data set” (2004):
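A five-concentration, 48-hour dose response in 96-well plates underlies each endpoint, interpolated linearly between surrounding concentrations. GI50 is the concentration that inhibits growth by half.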 Active and inactive are the calls of the source. No stated cut-off is given here; in the data, active = GI50 up to about 1.1 µM and inactive = higher.

Tests used:
Test in all cases: NCI anticancer screen, dose series, 48 h
[1] = tested on: DLD-1
[2] = tested on: DMS-114
[3] = tested on: DMS-273
[4] = tested on: HOP-18
[5] = tested on: LXFL 529
[6] = tested on: RXF 631
[7] = tested on: NCI/ADR-RES

Measured: GI50

CC(C)(C)/N=C/N1C=Cc2nc3ccccc3cc2C1
inactive: [1] 34.1 µM | [2] > 100 µM | [3] > 100 µM | [4] > 100 µM | [5] > 100 µM | [6] > 100 µM

COc1ccc2[nH]c3c(c2c1)[C@H]1CCC(C(C)(C)C)C[C@H]1[C@H]1C(=O)N(c2ccccc2)C(=O)[C@@H]31 (stereo partly drawn)
inactive: [1] 13.5 µM | [2] 21.9 µM | [3] 32.7 µM | [4] 25.6 µM | [5] 69.3 µM | [6] 6.15 µM

CC/C(SC)=[N+](\C)[O-]
inactive: [1] > 45.9 µM | [2] > 39 µM | [4] > 100 µM | [5] > 100 µM | [6] > 100 µM

O=C1C2C3C=CC(C2C(=O)N1CO)C1C2C(=O)N(CO)C(=O)C2C31 (stereo not drawn)
inactive: [1] > 46.9 µM | [2] 42 µM | [3] > 44.5 µM | [4] 43.4 µM | [5] > 81.1 µM | [6] > 54.6 µM

COc1ccc2c(c1)CCc1c(CO)c(COC(=O)NC(C)C)n(C)c1-2
inactive: [1] 4.72 µM | [2] 2.59 µM | [3] 5.48 µM | [4] 1.55 µM | [5] 3.21 µM | [7] 16.1 µM | [6] 13 µM

CC1=CC2CC(C)C1(C)CCc1ccoc12 (stereo not drawn)
inactive: [1] > 100 µM | [2] > 100 µM | [3] > 100 µM | [4] > 100 µM | [5] > 100 µM | [6] > 100 µM

O=C(c1cc2ccccc2[nH]1)C(O)(c1cc2ccccc2[nH]1)c1cc2ccccc2[nH]1
inactive: [1] > 246 µM | [2] > 246 µM | [3] > 246 µM | [5] > 246 µM | [6] > 246 µM

CNc1ccc2ncccc2c1[N+](=O)[O-]
inactive: [1] > 100 µM | [2] > 100 µM | [3] > 100 µM | [4] > 100 µM | [5] > 100 µM | [6] > 100 µM

O=C1c2ccccc2C(=O)c2nc3c(O)cccc3cc21
inactive: [1] 9.75 µM | [2] 3.81 µM | [3] 6.61 µM | [4] 24.9 µM | [5] 4.57 µM | [6] 36.2 µM

CN1c2ccccc2N(C)C23N(C)c4ccccc4N(C)C12N(C)c1ccccc1N3C (stereo not drawn)
inactive: [1] > 100 µM | [2] > 100 µM | [3] > 100 µM | [6] > 100 µM

O=c1cc(-c2ccc(Cl)cc2)oc2cc(OCCCOc3ccc4c(=O)cc(-c5ccc(Cl)cc5)oc4c3)ccc12
inactive: [1] > 100 µM | [2] > 100 µM | [3] > 100 µM | [4] > 100 µM | [5] > 100 µM | [6] > 100 µM

CCC12CCC(O)C1N(C)CCC2Sc1ccccc1 (stereo not drawn)
inactive: [2] 82.4 µM | [3] > 100 µM | [4] 46.7 µM | [6] > 100 µM

O=C(CC1(O)C(=O)Nc2ccc(Br)cc21)c1cccc([N+](=O)[O-])c1 (stereo not drawn)
inactive: [1] 34.5 µM | [3] 45.8 µM | [4] 23.6 µM | [5] 22.5 µM | [6] > 100 µM

COC(=O)/C(C=O)=C/Sc1ccccc1
inactive: [1] 21.4 µM | [2] 16.7 µM | [3] 18.4 µM | [4] > 100 µM | [5] 18.3 µM | [6] 14.9 µM

C[n+]1c2ccccc2c(NC(CCCNC(=N)N)C(=O)O)c2ccccc21 (stereo not drawn)
inactive: [1] > 100 µM | [2] > 100 µM | [3] > 100 µM | [4] > 100 µM | [5] > 100 µM
